Laboratory results published in PMC8322070, “A novel orally active HDAC6 inhibitor T-518 shows a therapeutic potential for Alzheimer’s disease and tauopathy in mice” (Scientific Reports, 2021).

What was measured:
class IIa HDACs = experiment: HDAC selectivity panel (Reaction Biology Corporation), class IIa; type: biochemical; settings: heat map Fig. 2A
Experimental: (§1) Recombinant HDAC6, HDAC7, HDAC1 were obtained from SignalChem Pharmaceutical Inc. (Richmond, BC, Canada), and recombinant human HDAC4 was prepared at Takeda pharmaceutical company. One μL of T-518 diluted with DMSO was added to 75 μL of assay buffer (24 mM Tris–HCl (pH 7.5), 135 mM NaCl, 0.35 mM KCl, 1 mM MgCl2, 0.01% Tween 20, 0.6 mM GSH) in 384 well plates. Two μL of diluted compounds were added to 384 well plates and 2 μL of recombinant HDAC enzymes was added and then centrifuged at 1000 rpm for 10 s. The final concentrations of each HDAC enzyme were as follows, human HDAC1, 170 pM; human HDAC6, […]; human HDAC4, 68 pM; human HDAC7, 13 pM. After incubation for 60 min at room temperature, 4 μL of HDAC-Glo reagent [HDAC-Glo I/II (Promega) for HDAC6 and HDAC1, HDAC-Glo class IIa (Promega) for HDAC4 and HDAC7] was added to start the reaction. After incubation for 20 min at room temperature, the luminescence was measured by Envision plate reader (PerkinElmer, Waltham, MA, USA). For experiments under the condition of 0 min preincubation, 4 μL of HDAC-Glo reagent was added at first to the 384 well plates including diluted compounds. After centrifugation at 1000 rpm for 10 s, 2 μL of HDAC enzyme solution was added. After centrifugation at 1000 rpm for 10 s. and then incubation for 20 min at room temperature, the luminescence was measured by Envision. For determination of inhibitory activity of T-518, the vehicle signal was set as 0% and the signal in the absence of HDAC enzyme was set as 100% inhibition. The inhibitory activity of T-518 was expressed as the value of IC50. The IC50 value and 95% confidence intervals were calculated by XLfit (IDBS, Surrey, UK). The HDAC selectivity panel was conducted by Reaction Biology Corporation (Malvern, PA, USA).

[1] = system: tubulin acetylation in mouse primary neural cultures; experiment: Tubulin acetylation in mouse primary neural culture (ELISA); type: cell-based; settings: DIV6 mouse primary neural culture, 0.1–10 μM, 24 h, ELISA
Experimental: (§2) T-518, ACY-738, Ricolinostat, and Tubastatin A were synthesized in Takeda. For in vitro cellular experiments, the compounds were solubilized with DMSO and diluted in the culture medium at the indicated concentrations. For in vivo experiments, the compound was reconstituted in 0.5% methylcellulose and administered orally at the indicated doses. After administration, mouse hippocampus was isolated and homogenized in RIPA extraction buffer (50 mM Tris–HCl, 150 mM NaCl, 1% NP-40, 0.5% sodium deoxycholate, and 0.1% SDS, pH 8.0) supplemented with protease and phosphatase inhibitor cocktail (Thermo Fischer, Waltham, MA, USA). The homogenate was centrifuged at 10,000g for 15 min and the supernatant was taken as the RIPA-soluble fraction.
(§3) Primary cortical neurons were prepared from E14 C57BL/6J mouse embryos (CLIEA Japan, Inc., Tokyo, Japan) using papain-containing Neuron Dissociation Solutions (Fujifilm Wako, Tokyo, Japan). Isolated cells were suspended in Neurobasal Medium containing B-27 (Thermo Fisher) and seeded on poly-D-lysine-coated plates (Corning, NY, USA) under 5% CO2 at 37 °C for 6 days in vitro (DIV) prior to evaluation of HDAC6 inhibitors. Cells were treated with HDAC6 inhibitors at the indicated concentrations for 24 h and lysed in RIPA extraction buffer (50 mM Tris–HCl, 150 mM NaCl, 1% NP-40, 0.5% sodium deoxycholate, and 0.1% SDS, pH 8.0) supplemented with protease and phosphatase inhibitor cocktail (Thermo Fisher).
Acetylated α-tubulin and total tubulin levels were measured by sandwich ELISA. Ninety six-well plates (Microlite2+, Thermo) were coated with α-tubulin capture antibody (1:100) by overnight incubation at 4 °C, washed 4 times with PBS'T, treated with blocking buffer (1% bovine serum albumin in PBS'T) at 37 °C for 2 h, and washed another 4 times with PBS’T. Cell or tissues lysate was added to the wells and plates were incubated at 37 °C for 2 h. Plates were then washed 4 times with PBST, incubated with a detection antibody for acetylated tubulin or total α-tubulin diluted in blocking buffer at 37℃ for 1 h, rewashed 4 more times with PBST, incubated with a mouse secondary antibody conjugated to horseradish peroxidase (HRP) for 30 min, wash 4 times again with PBST, and then incubated with chemiluminescent substrate (SuperSignal).

[2] = system: Histone H3 acetylation in mouse primary neural cultures; experiment: Histone H3 acetylation in mouse primary neural culture (Western blotting); type: cell-based; settings: DIV6 mouse primary neural culture, 3 and 30 μM, 24 h
Experimental: as §2, §3
Cell lysate or in vivo protein samples were separated by 10% SDS-PAGE, then electrophoretically transferred to 0.45 μm poly-vinylidene difluoride membranes (Millipore). Membranes were blocked for 1 h in Blocking Reagent (TOYOBO, Osaka, Japan), probed with primary antibodies followed by labeling with HRP-coupled secondary antibodies (Amersham, Piscataway, NJ), and then visualized using chemiluminescence reagent (ECL; Amersham). Images were captured using ImageQuant LAS 4000 (GE healthcare Bio-Sciences, Marlborough, MA, USA). Quantitative densitometric analyses were conducted using ImageQuant TL (GE healthcare Bio-Sciences). The protocol was slightly modified for detection of HDAC6 in cortex. Briefly, cerebral cortex was homogenized in RIPA buffer supplemented with 1 μM microstatin, 1 μM MG115, 40 μM Leupeptin, 100 μM ABSF, and 2 mM sodium orthovanadate, separated by 7.5–15% gradient SDS-PAGE and electrophoretically transferred to 0.45 μm poly-vinylidene difluoride membranes (Millipore). Membranes were blocked for 1 h with ECL Prime Blocking Reagent (Amersham, Piscataway, NJ) prior to immunoblotting, visualization, and densitometry as described above.

class I HDACs = experiment: HDAC selectivity panel (Reaction Biology Corporation), class I; type: biochemical; settings: heat map Fig. 2A
Experimental: as §1, with “After centrifugation at 1000 rpm for 10 s, 2 μL of HDAC enzyme solution was added.” left out, “For determination of inhibitory activity of T-518, the vehicle signal was set as 0% and the signal in the absence of HDAC enzyme was set as 100% inhibition.” left out, “The IC50 value and 95% confidence intervals were calculated by XLfit (IDBS, Surrey, UK). The HDAC selectivity panel was conducted by Reaction Biology Corporation (Malvern, PA, USA).” left out

SMILES	inhibition of class IIa HDACs in HDAC panel (class IIa HDACs)	effect on tubulin acetylation [1]	effect on Histone H3 acetylation [2]	inhibition of class I HDACs in HDAC panel (class I HDACs)
O=C(NO)c1cnc(NC2(c3ccccc3)CC2)nc1 [ACY-738]	slightly inhibit	significantly and concentration-dependently elevates tubulin acetylation	increase the acetylation of histone H3	slightly inhibit
O=C(CCCCCCNC(=O)c1cnc(N(c2ccccc2)c2ccccc2)nc1)NO [Ricolinostat]	slightly inhibit	significantly and concentration-dependently elevates tubulin acetylation	increase the acetylation of histone H3	slightly inhibit
CN1CCc2c(c3ccccc3n2Cc2ccc(C(=O)NO)cc2)C1 [Tubastatin A]	inhibits	significantly and concentration-dependently elevates tubulin acetylation	neither T-518 nor Tubastatin A at 3 and 30 μM demonstrates this activity	
